Test results: US5476661A, “Compositions for topical application to skin, hair and nails” (Elizabeth Arden Co., Division of Conopco, Inc., priority 1994, dated 1995)
“Also recorded” adds a separate entry of the source. Where two headings read alike, the source gives them in different places.

Columns and labels:
[1] = test system: HL-60 cells (human myelocytic leukemia cells); details: cited from earlier work
keratinocytes [2] = details: cited from earlier work
[3] = test system: normal human keratinocytes; assay: DNA synthesis rate (3H-thymidine incorporation) in normal human keratinocytes; assay type: cell-based
Description: Initiation of differentiation of keratinocytes is accompanied by inhibition of their growth. The rate of synthesis of DNA determined by the incorporation of radiolabeled substrate [^3 H] thymidine, is an indicator of the rate of growth of the cells. A decrease in DNA synthesis therefore indicates decrease in growth and increase in differentiation of keratinocytes.
Methodology Used for Determining the Rate of DNA Synthesis in Keratinocytes After Treatment With Various Actives
1. Normal human keratinocytes isolated from neonatal foreskins by trypsin treatment were grown in DME medium/10% fetal calf serum in the presence of irradiated 3T3 mouse fibroblasts for establishing dividing keratinocyte colonies. Keratinocytes were grown under the above condition until their third passage.
2. For the experiments, third passage keratinocytes were plated into a serum-free keratinocyte growth medium (KGM; obtained from Clonetics Corporation, San Diego, Calif.) containing 0.15 mM calcium. 20,000 to 30,000 cells were plated into each well of 24 well cell culture plates and grown for 5 days, until the cells reach about 80% confluence.
3. Medium was changed to fresh medium and the various test materials were added to the medium from an ethanolic stock solution (10 A.M.). The final ethanol concentration in the cultures was kept below 0.2%. Control cultures received no tested material but were dosed with 0.2% ethanol. Each compound or combination was tested in three separate wells. By 4 P.M., 1 uCi of ^3 H-thymidine (AmerSham Corp., Sp activity 40 Ci/mmol) was added to the 1 ml medium in each well. The cells were incubated overnight and 24 hours later (10 A.M. next day) the amount of ^3 H-thymidine associated with the cellular DNA of keratinocytes was assessed as described below.
4. The medium was aspirated, and the wells washed with 1 ml phosphate-buffered saline. The DNA and proteins of the cells in the plate were then precipitated by adding 1 ml of ice-cold 10% trichloroacetic acid (TCA). The plates were left on ice for 30 minutes to complete the precipitation process. TCA was then aspirated and each well was then washed four times with 5% TCA. The plates were then dried on a filter pad and the cells in the wells were dissolved in 0.5 ml of 0.1N sodium hydroxide. The sodium hydroxide was then neutralized using 0.1N hydrochloric acid and the solution (1 ml total volume) was then transferred to a scintillation vial. 100 ul samples from each vial were used for protein assay using BCA protein assay reagent obtained from Pierce Chemical Company. 8 ml of a scintillation fluid (Ecolume) was added to the rest of the solution in the vial, and the vials were counted in a scintillation counter to determine the amount of radioactivity in each vial. The DNA synthesis rate was then calculated as cpm ^3 H thymidine incorporated into total cellular DNA/microgram of cell protein for each individual well. Mean and standard deviation for each group was also calculated.
5. All lipids listed in Tables 1-5 below were synthesized in-house. 25-OH-D3 and 1,25-(OH)2 D3 were obtained from Hoffman La Roche. Vitamin D3 was obtained from Sigma.

[4] = test system: normal human keratinocytes; assay: Vitamin D3 metabolites' uptake by keratinocytes (cell associated radioactivity); assay type: in vitro ADME; details: for Uptake by keratinocytes, cell associated radioactivity: 60 picomolar, mean of duplicate; for uptake rate by keratinocytes / skin cells: Table 6 summary
Method: Normal human keratinocytes were grown to confluence in Keratinocyte growth medium (KGM) containing 0.15 mM calcium. Medium was changed to fresh medium. The cells were then incubated in duplicate with 10,000 cpm (60 picomolar, or 25 picogram/ml medium) of 25-OH-D3 or 1,25-(OH)2 D3 for various times (0 to 240 minutes). At different time intervals indicated in the Table below, the medium of appropriate wells were aspirated, and the wells were washed three times with a 0.2% bovine serum albumin solution in 50 mM Tris/0.15M sodium chloride buffer pH 7.4. After the wash the cells in the wells were dissolved in 0.1N sodium hydroxide, neutralized with 0.1N hydrochloric acid, mixed with 5 ml of scintillation fluid (Ecolume) and counted in a beta counter. The amount of cpm associated with the cells was calculated as the percent of total cpm added for each time point studied. Data in the table is expressed as cell associated radioactivity as % of total added. Each reported result is a mean of duplicate determinations.

keratinocytes [5] = details: Bikle et al., cited from earlier work; for conversion in skin / keratinocytes: MacLaughlin et al.
[6] = cited from earlier work
[7] = Homo sapiens, Keratinocyte, Table 5, 3 μM lipid, 0 nM 25-OH-D3, * = statistically significant growth inhibition

In the case of `CC1=C(/C=C/C(C)=C/C=C/C(C)=C/C(=O)O)C(C)(C)CCC1` [retinoic acid], the HL-60 cell differentiation [1] is listed as “induces differentiation of HL-60 cells” and the keratinocyte differentiation (keratinocytes [2]) is listed as “prevents differentiation of keratinocytes”.

Work on `CCCCCCCCCCCCC/C=C/C(O)C(CO)NC(C)=O` (stereo not drawn) [Ceramide (Formula A)] yielded an activity at 0.3 µM ([3]; Homo sapiens, Keratinocyte, Table 2, ceramide alone, 0.3 μM, Test 3) of 146 ± 21%, an activity at 1 µM ([3]; Homo sapiens, Keratinocyte, Table 2, ceramide alone, 1.0 μM, Test 1, read-out: DNA synthesis of keratinocytes) of 115 ± 11% and an activity at 1 µM ([3]; Homo sapiens, Keratinocyte, Table 2, ceramide alone, 1.0 μM, Test 2, read-out: DNA synthesis of keratinocytes) of 83.1 ± 6%. It also gave an activity at 3 µM ([3]; Homo sapiens, Keratinocyte, Table 2, ceramide alone, 3.0 μM, Test 3) of 112 ± 13%, an activity at 10 µM ([3]; Homo sapiens, Keratinocyte, Table 2, ceramide alone, Test 1) of 105 ± 22.4% and an activity at 10 µM ([3]; Homo sapiens, Keratinocyte, Table 2, ceramide alone, Test 2, * = statistically significant growth inhibition) of 69.9 ± 10%. The activity at 10 µM ([3]; Homo sapiens, Keratinocyte, Table 2, ceramide alone, Test 3, * = statistically significant growth inhibition) was 66 ± 14%, the activity at 3 µM ([3]; Homo sapiens, Keratinocyte, Table 4, 3.0 μM ceramide, 0 vitamin D3 or metabolite (ethanol vehicle only)) was 87.9 ± 0.8% and the activity at 3 µM [3, 7] was 88 ± 0.8%. The minimal effective concentration ([3]; Homo sapiens, Keratinocyte, Table 2 summary, only at the highest concentration, 2 out of 3 experiments, read-out: concentration at which statistically significant growth inhibition occurred) was 10 µM.

In the case of `CCCCCCCCCCCCCCC(O)CN(CCO)C(C)=O` (stereo not drawn) [pseudoceramide (Formula C)], the activity at 3 µM [3, 7] is reported as 51.4 ± 4%.

`C=C1CC[C@H](O)C/C1=C/C=C1\CCC[C@]2(C)[C@@H]([C@H](C)CCCC(C)(C)O)CC[C@@H]12` [Formula 25-OH--D3, 25-hydroxycholecalciferol] showed an activity at 0.01 µM ([3]; Homo sapiens, Keratinocyte, Table 1, compound alone, 10 nM, Test 2, read-out: DNA synthesis of keratinocytes) of 86.5 ± 9%, an activity at 0.01 µM ([3]; Homo sapiens, Keratinocyte, Table 1, compound alone, 10 nM, Test 3, read-out: DNA synthesis of keratinocytes) of 95.2 ± 6.8% and an activity at 0.1 µM ([3]; Homo sapiens, Keratinocyte, Table 1, compound alone, 100 nM, Test 1, * = statistically significant growth inhibition, read-out: DNA synthesis of keratinocytes) of 86.5 ± 5.4%. The activity at 0.1 µM ([3]; Homo sapiens, Keratinocyte, Table 1, compound alone, 100 nM, Test 2, * = statistically significant growth inhibition, read-out: DNA synthesis of keratinocytes) was 79.1 ± 2.6%, the activity at 1 µM ([3]; Homo sapiens, Keratinocyte, Table 1, compound alone, 1000 nM, Test 2, * = statistically significant growth inhibition, read-out: DNA synthesis of keratinocytes) was 78.9 ± 5.4% and the activity at 0.001 µM ([3]; Homo sapiens, Keratinocyte, Table 3, 25-OH-D3 alone, 1 nM (second line), read-out: DNA synthesis of keratinocytes) was 99.3 ± 1.91%. The activity at 0.01 µM ([3]; Homo sapiens, Keratinocyte, Table 3, 25-OH-D3 alone, 10 nM, read-out: DNA synthesis of keratinocytes) was 97.2 ± 5.92%, the activity at 0.1 µM ([3]; Homo sapiens, Keratinocyte, Table 3, 25-OH-D3 alone, 100 nM, read-out: DNA synthesis of keratinocytes) was 86.5 ± 5.47% and the activity at 1 µM ([3]; Homo sapiens, Keratinocyte, Table 3, 25-OH-D3 alone, 1000 nM, read-out: DNA synthesis of keratinocytes) was 67.8 ± 5.92%. The activity at 0.001 µM ([3]; Homo sapiens, Keratinocyte, Table 3, 25-OH-D3 alone, first line, concentration printed as 1 nM, read-out: DNA synthesis of keratinocytes) was 100 ± 4.71%, the activity at 0.1 µM ([3]; Homo sapiens, Keratinocyte, Table 5, 100 nM 25-OH-D3, no ceramide, read-out: DNA synthesis of keratinocytes) was 88.5 ± 7.2% and the minimal effective concentration ([3]; Homo sapiens, Keratinocyte, read-out: concentration at which statistically significant cell growth inhibition was consistently observed, Table 1 summary, compound alone, only at this concentration) was 1 µM. For the same compound, the “Uptake by keratinocytes, cell associated radioactivity” value (“Uptake by keratinocytes” below) ([4]; 0 minutes) was 2.5 % of total added, the “Uptake by keratinocytes” value ([4]; 2 minutes) was 3.2 % of total added and the “Uptake by keratinocytes” value ([4]; 5 minutes) was 0.3 % of total added. The “Uptake by keratinocytes” value ([4]; 10 minutes) was 3.4 % of total added, the “Uptake by keratinocytes” value ([4]; 15 minutes) was 8.3 % of total added and the “Uptake by keratinocytes” value ([4]; 30 minutes) was 8.1 % of total added. The “Uptake by keratinocytes” value ([4]; 60 minutes) was 6.2 % of total added, the “Uptake by keratinocytes” value ([4]; 120 minutes) was 6.8 % of total added and the “Uptake by keratinocytes” value ([4]; 240 minutes) was 9.8 % of total added. For the same compound, the “uptake rate by keratinocytes / skin cells” value [4] was “slower uptake; also recorded: taken up by keratinocytes at a substantially slower rate than 1,25-(OH)2 D3” and the “conversion in skin / keratinocytes” value (keratinocytes [5]) was “converted to 1,25-(OH)2 D3 in keratinocyte cultures”.

In the case of `C=C1CC[C@H](O)C/C1=C/C=C1\CCC[C@]2(C)[C@@H]([C@H](C)CCCC(C)C)CC[C@@H]12` [vitamin D3], the “statistically significant growth inhibition” value ([3]; Table 4 summary, vitamin D3 alone) is given as “does not show statistically significant growth inhibition”, the keratinocyte prodifferentiating activity (keratinocytes [2]; applied topically to skin, MacLaughlin et al.) is given as “neither has keratinocyte prodifferentiating activity” and the “conversion in skin / keratinocytes” value (keratinocytes [5]) is given as “nor is it converted in the skin to 25-OH-D3 derivative”.

In the case of `C=C1/C(=C\C=C2/CCC[C@]3(C)[C@@H]([C@H](C)CCCC(C)(C)O)CC[C@@H]23)C[C@@H](O)C[C@@H]1O` [1,25-(OH)2 D3, 1,25-dihydroxycholecalciferol], the activity at 0.001 µM ([3]; Homo sapiens, Keratinocyte, read-out: DNA synthesis of keratinocytes, Table 1, compound alone, 1 nM, Test 1) is reported as 115 ± 7.7%, the activity at 0.01 µM ([3]; Homo sapiens, Keratinocyte, read-out: DNA synthesis of keratinocytes, Table 1, compound alone, 10 nM, Test 1) is reported as 108 ± 8.7% and the activity at 0.01 µM ([3]; Homo sapiens, Keratinocyte, read-out: DNA synthesis of keratinocytes, Table 1, compound alone, 10 nM, Test 2) is reported as 91.9 ± 5.3%. The activity at 0.01 µM ([3]; Homo sapiens, Keratinocyte, read-out: DNA synthesis of keratinocytes, Table 1, compound alone, 10 nM, Test 3) was 91.8 ± 4.5%, the activity at 0.1 µM ([3]; Homo sapiens, Keratinocyte, read-out: DNA synthesis of keratinocytes, Table 1, compound alone, 100 nM, Test 1, * = statistically significant growth inhibition) was 102 ± 16.7% and the activity at 0.1 µM ([3]; Homo sapiens, Keratinocyte, read-out: DNA synthesis of keratinocytes, Table 1, compound alone, 100 nM, Test 2, * = statistically significant growth inhibition) was 86 ± 7.7%. For the same compound, the activity at 0.1 µM ([3]; Homo sapiens, Keratinocyte, read-out: DNA synthesis of keratinocytes, Table 1, compound alone, 100 nM, Test 3) was 90.3 ± 9.5%, the activity at 1 µM ([3]; Homo sapiens, Keratinocyte, read-out: DNA synthesis of keratinocytes, Table 1, compound alone, 1000 nM, Test 1, * = statistically significant growth inhibition) was 71.5 ± 2.9% and the activity at 1 µM ([3]; Homo sapiens, Keratinocyte, read-out: DNA synthesis of keratinocytes, Table 1, compound alone, 1000 nM, Test 2, * = statistically significant growth inhibition) was 56.3 ± 14.1%. It also gave an activity at 0.01 µM ([3]; Homo sapiens, Keratinocyte, read-out: DNA synthesis of keratinocytes, Table 4, 10 nM vitamin D3 or metabolite, no ceramide) of 91.8 ± 4.6%, an activity at 0.1 µM ([3]; Homo sapiens, Keratinocyte, read-out: DNA synthesis of keratinocytes, Table 4, 100 nM vitamin D3 or metabolite, no ceramide) of 90.3 ± 9.5% and a minimal effective concentration ([3]; Homo sapiens, Keratinocyte, read-out: concentration at which statistically significant cell growth inhibition was consistently observed) of 1 µM. The “Uptake by keratinocytes” value ([4]; 0 minutes) was 0.8 % of total added, the “Uptake by keratinocytes” value ([4]; 2 minutes) was 2.7 % of total added and the “Uptake by keratinocytes” value ([4]; 5 minutes) was 4.2 % of total added. The “Uptake by keratinocytes” value ([4]; 10 minutes) was 13.0 % of total added, the “Uptake by keratinocytes” value ([4]; 15 minutes) was 10.0 % of total added and the “Uptake by keratinocytes” value ([4]; 30 minutes) was 20.0 % of total added. The “Uptake by keratinocytes” value ([4]; 60 minutes) was 15.6 % of total added, the “Uptake by keratinocytes” value ([4]; 120 minutes) was 26.2 % of total added and the “Uptake by keratinocytes” value ([4]; 240 minutes) was 30.8 % of total added. The “uptake rate by keratinocytes / skin cells” value [4] was “rapidly taken up”, the “toxicity of higher blood levels” value ([6]; higher levels of 1,25-(OH)2 D3 in blood) was “increase blood calcium levels and may cause heart problems, muscle weakness and contraction which may be fatal” and the “blood level after topical application” value ([6]; in vivo) was “increases blood level of 1,25-(OH)2 D3”. For the same compound, the “effect on DNA synthesis and differentiation of keratinocytes” value (keratinocytes [2]; exogenous or endogenous, Pillai et al., Hashimoto et al.) was “inhibits DNA synthesis (i.e., inhibits growth) and induces differentiation of keratinocytes”, the “catabolism to inactive metabolites by keratinocytes” value (keratinocytes [5]) was “catabolized to inactive metabolites rapidly” and the “degradation within skin cells” value (keratinocytes [5]; exogenously added) was “rapidly degraded within the skin cells”.
